Measurements published in the NIST ThermoML archive (doi:10.1021/je060271a).

Settings: 303.14 K, Liquid, Vibrating tube method

CCCCCCC(=O)OCC(COC(=O)CCCCCC)(COC(=O)CCCCCC)COC(=O)CCCCCC [pentaerythritol tetraheptanoate]
Settings	mass density [kg/m3]
3038.7 kPa	972.7
3058.7 kPa	972.6
3082.4 kPa	972.7
3102.9 kPa	972.7
3122.8 kPa	972.6
3144 kPa	972.7
3168.8 kPa	972.6
3190.1 kPa	972.7
3211.6 kPa	972.8
3237.6 kPa	972.8
3258.9 kPa	972.7
3281.4 kPa	972.8
3307.8 kPa	972.7
3330.1 kPa	972.8
3352.7 kPa	972.9
3380 kPa	972.9
3403.4 kPa	972.9
3426.8 kPa	973
3450.4 kPa	972.9
3479.2 kPa	972.9
3502.9 kPa	972.9
3527.3 kPa	972.9
3557 kPa	973
3581.9 kPa	973.1
3607.2 kPa	972.9
3632.9 kPa	973
3663.7 kPa	973
3689.2 kPa	973.1
3719.9 kPa	973.1
3746.2 kPa	973
3772.9 kPa	973.1
3800.2 kPa	973.1
3832.6 kPa	973.2
3860.2 kPa	973.1
3888.8 kPa	973.1
3922.9 kPa	973.2
3951.5 kPa	973.3
3980.6 kPa	973.3
4009.8 kPa	973.2
4044.8 kPa	973.2
4074.3 kPa	973.3
4103.9 kPa	973.4
4139.9 kPa	973.4
4170.1 kPa	973.4
4200.4 kPa	973.3
4233.1 kPa	973.3
4239.8 kPa	973.3
4241.6 kPa	973.4
4243.3 kPa	973.4
4244.7 kPa	973.5
4245.2 kPa	973.4
4245.9 kPa	973.5
4246.6 kPa	973.4
4246.8 kPa	973.5
4247.1 kPa	973.4
4247.3 kPa	973.4
4247.5 kPa	973.5
4249.4 kPa	973.4
4257.2 kPa	973.5
4271.5 kPa	973.3
4283.5 kPa	973.5
4296.1 kPa	973.4
4311.4 kPa	973.5
4322.4 kPa	973.6
4342.7 kPa	973.4
4361.4 kPa	973.4
4372.3 kPa	973.5
4382.1 kPa	973.5
4393.9 kPa	973.6
4403.8 kPa	973.4
4413.6 kPa	973.4
4425.4 kPa	973.5
4435.5 kPa	973.5
4445.2 kPa	973.5
4455.2 kPa	973.5
4467.5 kPa	973.6
4476.8 kPa	973.6
4487.4 kPa	973.6
4499.3 kPa	973.5
4509.6 kPa	973.5
4519.6 kPa	973.6
4529.8 kPa	973.5
4541.2 kPa	973.6
4551.3 kPa	973.5
4563.6 kPa	973.6
4573.1 kPa	973.6
4582.4 kPa	973.6
4592.3 kPa	973.7
4605.6 kPa	973.6
4631.8 kPa	973.7
4653.8 kPa	973.6
4676.1 kPa	973.5
4703.4 kPa	973.7
4724.4 kPa	973.8
4743.1 kPa	973.7
4764.9 kPa	973.7
4783.4 kPa	973.6
4801.9 kPa	973.8
4820.6 kPa	973.8
4843.5 kPa	973.7
4862.8 kPa	973.7
4882.7 kPa	973.8
4901.8 kPa	973.6
4925 kPa	973.8
4944 kPa	973.8
4964.4 kPa	973.9
4984.3 kPa	974
5008.5 kPa	973.8
5029 kPa	973.9
5050.1 kPa	974
5075 kPa	973.9
